A short description of data set [1]: Solubility of the compound in pH 7.4 phosphate buffered saline by HPLC-MS analysis. Format: physicochemical.
The nature of data set [2]: Apparent permeability in human Caco2 cells at 5 uM measured after 5 hrs by LC-MS analysis. The class given is ADME, cell-based. The following applies: Caco-2. (Caco-2 monolayers are a common model of the intestinal barrier.)
Another data set concerns NHDF. The data set can be described thus: Cytotoxicity against NHDF cells assessed as reduction in cell viability up to 100 uM measured after 72 hrs by Celltiter-glo assay. The following applies: human. The class given is cell-based. (Cellular ATP, detected with luciferase, serves as a proxy for viable cell number.)
For a further data set, the system named is PBMC. The data set can be described thus: Cytotoxicity against human PBMC cells assessed as reduction in cell viability up to 100 uM measured after 72 hrs by Celltiter-glo assay. Format: cell-based.
The target of the next data set is Cathepsin D (Homo sapiens, UniProt P07339). In words: Inhibition of human placenta CatD using Abz-Lys-Pro-Ala-Glu-Phe-Nph-Ala-Leu as substrate preincubated for 10 mins followed by substrate addition and measured by FRET assay.
Sequence of Cathepsin D (P07339 65-162 limits assumed): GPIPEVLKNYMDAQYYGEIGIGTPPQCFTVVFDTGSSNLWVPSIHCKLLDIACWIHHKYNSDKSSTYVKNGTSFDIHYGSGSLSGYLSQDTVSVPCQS
Sequence of Cathepsin D (P07339 169-412 limits assumed): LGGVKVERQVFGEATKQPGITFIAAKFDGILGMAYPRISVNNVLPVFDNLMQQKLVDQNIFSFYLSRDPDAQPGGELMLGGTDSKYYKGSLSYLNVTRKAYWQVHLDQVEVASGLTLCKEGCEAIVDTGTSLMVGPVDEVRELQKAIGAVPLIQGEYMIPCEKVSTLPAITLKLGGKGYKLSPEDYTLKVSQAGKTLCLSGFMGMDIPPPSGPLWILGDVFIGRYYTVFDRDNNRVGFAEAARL
Data set [3] deals with T1, Renin (Homo sapiens) (UniProt P00797).
T1 sequence (whole entry): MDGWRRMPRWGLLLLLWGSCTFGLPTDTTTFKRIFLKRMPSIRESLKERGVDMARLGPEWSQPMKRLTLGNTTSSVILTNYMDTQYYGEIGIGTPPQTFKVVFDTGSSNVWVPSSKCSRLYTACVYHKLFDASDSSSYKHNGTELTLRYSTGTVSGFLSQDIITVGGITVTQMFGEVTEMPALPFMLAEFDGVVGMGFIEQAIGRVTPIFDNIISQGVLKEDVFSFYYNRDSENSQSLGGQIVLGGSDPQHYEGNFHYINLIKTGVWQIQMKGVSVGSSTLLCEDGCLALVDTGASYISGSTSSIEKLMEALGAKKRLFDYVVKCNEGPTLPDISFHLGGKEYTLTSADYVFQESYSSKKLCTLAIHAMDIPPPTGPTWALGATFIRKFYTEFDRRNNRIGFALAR
In words: Inhibition of recombinant human N-terminal FLAG-tagged renin (67 to 406 residues) expressed in HEK cells at 50 nM using Arg-Glu(EDANS)-Ile-His-Pro-Phe-His-Leu-Val-Ile-His-Thr-Lys(Dabcyl)-Arg as substrate preincubated for 10 mins followed by substrate addition and measured by FRET assay.

For data set [4], the target named is Beta-secretase 1 (Homo sapiens) (UniProt P56817). The data set can be described thus: Inhibition of recombinant human C-terminal 10His-tagged BACE1 expressed in mouse NS0 cells at 50 nM using Mca-Ser-Glu-Val-Asn-Leu-Asp-Ala-Glu-Phe-Arg-Lys(Dnp)-Arg-Arg as substrate preincubated for 10 mins followed by substrate addition and measured by FRET assay.
Sequence of Beta-secretase 1 (Homo sapiens) (P56817 whole entry): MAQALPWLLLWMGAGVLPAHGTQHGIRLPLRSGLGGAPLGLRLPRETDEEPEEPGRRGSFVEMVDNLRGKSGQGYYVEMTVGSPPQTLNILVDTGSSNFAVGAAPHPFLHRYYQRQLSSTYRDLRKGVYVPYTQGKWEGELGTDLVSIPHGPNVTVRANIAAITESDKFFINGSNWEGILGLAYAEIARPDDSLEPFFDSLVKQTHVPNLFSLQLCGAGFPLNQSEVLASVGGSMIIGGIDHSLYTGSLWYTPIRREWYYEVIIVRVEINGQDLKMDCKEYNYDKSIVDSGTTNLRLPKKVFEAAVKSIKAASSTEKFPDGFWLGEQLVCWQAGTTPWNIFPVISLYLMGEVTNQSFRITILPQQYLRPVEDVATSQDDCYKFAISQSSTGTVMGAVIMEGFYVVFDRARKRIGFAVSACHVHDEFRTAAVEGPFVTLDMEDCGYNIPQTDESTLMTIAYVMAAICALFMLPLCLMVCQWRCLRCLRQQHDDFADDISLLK
Data set [5] concerns the target Protease (Human immunodeficiency virus 1) (UniProt Q9YQ12). The data set can be described thus: Inhibition of HIV1 protease at 50 nM using Abz-Tyr-Ile-Nle-Nph-Gln-Arg as substrate preincubated for 10 mins followed by substrate addition and measured by FRET assay.
The test system of the next data set is Ixodes ricinus. In words: Inhibition of Ixodes ricinus CatD expressed in Escherichia coli BL21(DE3) at 50 nM using Abz-Lys-Pro-Ala-Glu-Phe-Nph-Ala-Leu as substrate preincubated for 10 mins followed by substrate addition and measured by FRET assay.
For data set [6], the target named is Saccharopepsin (Saccharomyces cerevisiae S288c) (UniProt P07267). In words: Inhibition of Baker's yeast proteinase A at 50 nM using Abz-Lys-Pro-Ala-Glu-Phe-Nph-Ala-Leu as substrate preincubated for 10 mins followed by substrate addition and measured by FRET assay.
Sequence of Saccharopepsin (Saccharomyces cerevisiae S288c) (P07267 whole entry): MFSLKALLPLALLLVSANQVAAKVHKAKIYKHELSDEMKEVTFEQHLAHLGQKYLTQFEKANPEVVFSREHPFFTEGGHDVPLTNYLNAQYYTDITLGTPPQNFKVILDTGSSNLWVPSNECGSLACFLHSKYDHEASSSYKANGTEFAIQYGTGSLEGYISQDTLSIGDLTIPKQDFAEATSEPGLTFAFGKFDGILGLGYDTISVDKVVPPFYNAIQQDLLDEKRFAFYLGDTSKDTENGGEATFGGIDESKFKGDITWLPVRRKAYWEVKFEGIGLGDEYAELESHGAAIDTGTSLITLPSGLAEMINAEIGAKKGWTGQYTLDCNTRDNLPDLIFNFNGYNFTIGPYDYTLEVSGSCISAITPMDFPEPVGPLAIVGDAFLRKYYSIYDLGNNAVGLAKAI
Another data set addresses T2, Papain (Carica papaya, UniProt P00784).
T2 sequence (P00784 whole entry): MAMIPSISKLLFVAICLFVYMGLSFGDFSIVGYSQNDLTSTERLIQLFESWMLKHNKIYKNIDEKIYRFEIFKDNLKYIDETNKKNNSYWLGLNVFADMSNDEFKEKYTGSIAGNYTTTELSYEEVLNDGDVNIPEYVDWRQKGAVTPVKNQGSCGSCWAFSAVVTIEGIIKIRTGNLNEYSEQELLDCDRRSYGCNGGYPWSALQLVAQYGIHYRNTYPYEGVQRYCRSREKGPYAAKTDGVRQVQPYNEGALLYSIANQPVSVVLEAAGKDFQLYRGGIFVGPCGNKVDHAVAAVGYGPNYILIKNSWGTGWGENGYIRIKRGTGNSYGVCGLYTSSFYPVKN
The data set can be described thus: Stability of the compound assessed as papaya papain-mediated compound hydrolysis at 25 ug measured after 18 hrs by HPLC analysis. Format: ADME.

The nature of data set [7]: Stability of the compound assessed as bovine trypsin-mediated compound hydrolysis at 25 ug measured after 18 hrs by HPLC analysis. Format: ADME, Bos taurus. The following applies: cattle.
The nature of data set [8]: Stability of the compound assessed as bovine chymotrypsin-mediated compound hydrolysis at 25 ug measured after 18 hrs by HPLC analysis. The class given is ADME, Bos taurus. The note with it: cattle.
The target of a further data set is T3, Thermolysin (Geobacillus stearothermophilus, UniProt P43133).
T3 sequence (P43133 whole entry): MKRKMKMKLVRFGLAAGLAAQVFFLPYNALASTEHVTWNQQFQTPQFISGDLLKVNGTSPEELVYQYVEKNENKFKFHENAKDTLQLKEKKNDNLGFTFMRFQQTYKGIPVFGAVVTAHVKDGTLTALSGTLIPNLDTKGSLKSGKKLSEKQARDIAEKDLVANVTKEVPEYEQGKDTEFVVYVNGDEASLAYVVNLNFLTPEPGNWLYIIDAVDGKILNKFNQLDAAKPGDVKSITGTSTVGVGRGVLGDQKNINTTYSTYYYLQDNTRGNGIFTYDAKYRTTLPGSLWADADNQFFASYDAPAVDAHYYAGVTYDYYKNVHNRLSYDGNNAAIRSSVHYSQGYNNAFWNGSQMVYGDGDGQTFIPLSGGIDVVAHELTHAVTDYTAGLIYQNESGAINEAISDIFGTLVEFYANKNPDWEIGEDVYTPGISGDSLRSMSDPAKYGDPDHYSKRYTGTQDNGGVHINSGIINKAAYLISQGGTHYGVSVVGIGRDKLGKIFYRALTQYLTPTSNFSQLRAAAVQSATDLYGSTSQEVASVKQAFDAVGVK
The data set can be described thus: Stability of the compound assessed as Geobacillus stearothermophilus thermolysin-mediated compound hydrolysis at 25 ug measured after 18 hrs by HPLC analysis. The class given is ADME.

The target in another data set is T4, Papain (Carica papaya) (UniProt P00784).
T4 sequence (whole entry): T2 sequence (P00784 whole entry)
In words: Inhibition of papaya papain at 1 uM using Z-Phe-Arg-AMC as substrate preincubated for 10 mins followed by substrate addition and measured after 20 mins by fluorescence assay.

The species entered for data set [9] is Bos taurus. In words: Inhibition of bovine trypsin at 1 uM using Z-Phe-Arg-AMC as substrate preincubated for 10 mins followed by substrate addition and measured after 20 mins by fluorescence assay.
For data set [10], the species on record is Bos taurus. The data set can be described thus: Inhibition of bovine chymotrypsin at 1 uM using Z-Phe-Arg-AMC as substrate preincubated for 10 mins followed by substrate addition and measured after 20 mins by fluorescence assay.
Data set [11] addresses T5, Thermolysin (Geobacillus stearothermophilus) (UniProt P43133).
T5 sequence (whole entry): T3 sequence (P43133 whole entry)
In words: Inhibition of Geobacillus stearothermophilus thermolysin at 1 uM using Abz-Ala-Gly-Leu-Ala-nitro-benzylamide as substrate preincubated for 10 mins followed by substrate addition and measured after 20 mins by fluorescence assay.

In data set [12] the target is T1, Renin (Homo sapiens). The data set can be described thus: Inhibition of recombinant human N-terminal FLAG-tagged renin (67 to 406 residues) expressed in HEK cells at 5 uM using Arg-Glu(EDANS)-Ile-His-Pro-Phe-His-Leu-Val-Ile-His-Thr-Lys(Dabcyl)-Arg as substrate preincubated for 10 mins followed by substrate addition and measured by FRET assay.
In data set [13] the target is Beta-secretase 1 (Homo sapiens) (UniProt P56817). The data set can be described thus: Inhibition of recombinant human C-terminal 10His-tagged BACE1 expressed in mouse NS0 cells at 5 uM using Mca-Ser-Glu-Val-Asn-Leu-Asp-Ala-Glu-Phe-Arg-Lys(Dnp)-Arg-Arg as substrate preincubated for 10 mins followed by substrate addition and measured by FRET assay.
For data set [14], the target named is Protease (Human immunodeficiency virus 1) (UniProt Q9YQ12). In words: Inhibition of HIV1 protease at 5 uM using Abz-Tyr-Ile-Nle-Nph-Gln-Arg as substrate preincubated for 10 mins followed by substrate addition and measured by FRET assay.
Sequence of Protease (Human immunodeficiency virus 1) (Q9YQ12 as listed by the source): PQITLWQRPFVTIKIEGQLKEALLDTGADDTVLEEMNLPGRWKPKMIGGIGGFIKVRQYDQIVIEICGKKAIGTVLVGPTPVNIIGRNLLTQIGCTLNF
The species named for a further data set is Sus scrofa. In words: Inhibition of porcine pepsin at 50 nM using Abz-Lys-Pro-Ala-Glu-Phe-Nph-Ala-Leu as substrate preincubated for 10 mins followed by substrate addition and measured by FRET assay.

Values after ≈ are worked out from the molar mass of the structure shown. Active and inactive are the calls of the source. The rule behind the calls is not given here.

In general, solubility refers to the concentration that dissolves in the medium under given conditions. A low value points to a poorly soluble substance. As usually defined, the Papp is a coefficient for how fast a substance crosses the barrier. The compound `CC(C)CC(=O)N[C@H](C(=O)N[C@H](C(=O)N[C@@H](CC(C)C)[C@@H](O)CC(=O)N[C@@H](C)C(=O)N[C@@H](CC(C)C)[C@@H](O)CC(=O)O)C(C)C)C(C)C` [PEPSTATIN] displayed a solubility in data set [1] of 197 µg/mL (≈ 287 µM). In data set [2], the apparent permeability (Papp) at 5 h, 5 µM is 0.11 ×10⁻⁶ cm/s. Besides, the Activity entry in the data set on NHDF and with PBMC was “Non-Toxic” each time.

As a reminder, the IC50 is the concentration that gives 50% inhibition. Regarding `CC(C)[C@@H]1NC(=O)C[C@H](O)[C@H](Cc2ccccc2)NC(=O)OCCCCCCCCCCCNC1=O`, half-maximal inhibition against Cathepsin D (IC50) was put at 2.5 nM. For the same compound, the Papp at 5 h, 5 µM in data set [2] was 1.68 ×10⁻⁶ cm/s. The Activity result in the data set on NHDF and with PBMC was “Non-Toxic” in each case. For the same compound, the inhibition entry (on Renin (Homo sapiens) [3]; in data set [4]; in data set [5]; on Papain (Carica papaya); in the data set listed under Bos taurus [9]; in the data set filed under Bos taurus [10]) was “inactive” in each case. Also, the inhibition entry in data set [11] was “inactive”. Further, the inhibition result (in the data set with Ixodes ricinus; in [6]; at Renin (Homo sapiens) [12]; in [13]; in data set [14]) was “Active” each time. The Stability entry (at Papain; in data set [7]; in [8]; at Thermolysin) was “Stable” in each case.

`CC(=O)NCCCC[C@@H]1NC(=O)C[C@H](O)[C@H](Cc2ccccc2)NC(=O)CCCCCCCCCCCNC1=O` registered an IC50 on Cathepsin D of 16 nM. In addition, the inhibition entry (in the data set listed under Sus scrofa; in the data set on Ixodes ricinus; in [6]; at Renin (Homo sapiens) [12]; in data set [13]; in data set [14]) was “Active” throughout. In addition, the inhibition result (at Renin (Homo sapiens) [3]; in data set [4]; in data set [5]) was “inactive” in each case.

`O=C1C[C@H](O)[C@H](Cc2ccccc2)NC(=O)CCCCCCCCCCCNC(=O)[C@H](Cc2cccnc2)N1` came in with a half-maximal inhibitory concentration (IC50) against Cathepsin D of 1.1 nM. For the same compound, in [1], the solubility was determined as 342 µg/mL (≈ 637 µM). Besides, the Activity result with NHDF and with PBMC was “Non-Toxic” throughout. Also, the inhibition result (on Renin (Homo sapiens) [3]; in data set [4]; in [5]; at Papain (Carica papaya); in the data set filed under Bos taurus [9]; in the data set filed under Bos taurus [10]) was “inactive” in each case. Further, in data set [11], the inhibition entry is “inactive”. The inhibition result (in the data set with Ixodes ricinus; in [6]; at Renin (Homo sapiens) [12]; in [13]; in data set [14]) was “Active” each time. The Stability entry (at Papain; in data set [7]; in [8]; at Thermolysin) was “Stable” each time.
